Experiments:
[1] = Spectroscopic measurements (absorption, emission, quantum yield, extinction coefficient); assay type: physicochemical
Beta TC-6 cells = assay: High throughput cell-based screening on acinar, Alpha TC-1 and Beta TC-6 cells; design: species or system mouse; details: 1 μM, 1 hr to 48 hours, 384-well plates
Method: To discover pancreatic islet selective probes, we expanded the other two types of BODIPY library generated from the original GY (Glucagon Yellow) structure. We started with high throughput cell-based screening using mouse acinar cells composed of exocrine tissue, mouse Alpha TC-1 cells and Beta TC-6 cells composed of endocrine pancreas islets. Those three different types of cells were prepared side by side in 384-well plates and incubated with 1 μM of BODIPY compounds for different incubation times ranging from 1 hr to 48 hours. The fluorescence images were acquired on an automated imaging microscope system ImageXpress Micro™. The fluorescence intensity of the stained cells was analyzed using MetaXpress® image processing software.

[2] = BDNCA library, difference emission minus absorption
[3] = BDNCA library, extinction coefficient; in M-1 cm-1 (unit assumed)
[4] = BDNCA library, fluorescence emission
[5] = absorption maximum, BDNCA library
[6] = difference of emission and absorption maxima
[7] = extinction coefficient, BDNCA library; in M-1 cm-1 (unit assumed)
[8] = fluorescence emission maximum, BDNCA library

For Cc1cc(/C=C/c2ccc(-c3ccccc3)cc2)n2c1C(c1ccc(NC(=O)CCl)cc1)=C1C=CC=[N+]1[B-]2(F)F [BDNCA-5], the “Qunt. Yield” value ([1]; BDNCA library) was 0.09, the Abs ([1]; BDNCA library, absorption) was 566 nm and the Flu-Abs [1, 2] was 23. The ε [1, 3] was 39,542, the Flu [1, 4] was 589 and the “staining of alpha cells and beta cells compared with acinar cells” value (Beta TC-6 cells) was “stained either both alpha cells and beta cells or beta cells only as compared with acinar cells”.

For CC1=CC(/C=C/c2cc(C)c(OCc3ccccc3)c(C)c2)=[N+]2C1=C(c1ccc(NC(=O)CCl)cc1)c1cccn1[B-]2(F)F [BDNCA-16], the “Qunt. Yield” value ([1]; BDNCA library) was 0.13, the Abs ([1]; BDNCA library, absorption) was 562 nm and the Flu-Abs [1, 2] was 23. For the same compound, the ε [1, 3] was 55,469, the Flu [1, 4] was 585 and the “staining of alpha cells and beta cells compared with acinar cells” value (Beta TC-6 cells) was “stained either both alpha cells and beta cells or beta cells only as compared with acinar cells”.

For CC1=CC(/C=C/c2cccc(C)c2C)=[N+]2C1=C(c1ccc(NC(=O)CCl)cc1)c1cccn1[B-]2(F)F [BDNCA-349], the Abs [1, 5] was 556 nm, the Flu-Abs [1, 6] was 22 and the ε [1, 7] was 36,247. For the same compound, the Flu [1, 8] was 578 and the “Qunt. Yield” value ([1]; quantum yield, BDNCA library) was 0.03.

For COc1ccc(/C=C/C2=[N+]3C(=C(c4ccc(NC(=O)CCl)cc4)c4cccn4[B-]3(F)F)C(C)=C2)cc1[N+](=O)[O-] [BDNCA-350], the Abs [1, 5] was 560 nm, the Flu-Abs [1, 6] was 21 and the ε [1, 7] was 34,874. The Flu [1, 8] was 581 and the “Qunt. Yield” value ([1]; quantum yield, BDNCA library) was 0.07.

In the case of CC1=CC(/C=C/c2ncc[nH]2)=[N+]2C1=C(c1ccc(NC(=O)CCl)cc1)c1cccn1[B-]2(F)F [BDNCA-353], the Abs [1, 5] is reported as 570 nm, the Flu-Abs [1, 6] is reported as 44 and the ε [1, 7] is reported as 15,652. The Flu [1, 8] was 614 and the “Qunt. Yield” value ([1]; quantum yield, BDNCA library) was 0.01.

For Cc1cc(/C=C/c2ccc(SC(F)(F)F)cc2)n2c1C(c1ccc(NC(=O)CCl)cc1)=C1C=CC=[N+]1[B-]2(F)F [BDNCA-363], the Abs [1, 5] was 558 nm, the Flu-Abs [1, 6] was 18 and the ε [1, 7] was 41,190. The Flu [1, 8] was 576 and the “Qunt. Yield” value ([1]; quantum yield, BDNCA library) was 0.08.

For CC1=CC(/C=C/c2ccccc2OC(F)(F)F)=[N+]2C1=C(c1ccc(NC(=O)CCl)cc1)c1cccn1[B-]2(F)F [BDNCA-365], the Abs [1, 5] was 553 nm, the Flu-Abs [1, 6] was 16 and the ε [1, 7] was 45,584. The Flu [1, 8] was 569 and the “Qunt. Yield” value ([1]; quantum yield, BDNCA library) was 0.07.

For COc1cc(O)c(/C=C/C2=[N+]3C(=C(c4ccc(NC(=O)CCl)cc4)c4cccn4[B-]3(F)F)C(C)=C2)c(OC)c1 [BDNCA-366], the Abs [1, 5] was 579 nm, the Flu-Abs [1, 6] was 50 and the ε [1, 7] was 38,444. The Flu [1, 8] was 629 and the “Qunt. Yield” value ([1]; quantum yield, BDNCA library) was 0.02.

For CC1=CC(/C=C/c2cc3ccccc3o2)=[N+]2C1=C(c1ccc(NC(=O)CCl)cc1)c1cccn1[B-]2(F)F [BDNCA-368], the Abs [1, 5] was 578 nm, the Flu-Abs [1, 6] was 23 and the ε [1, 7] was 21,968. The Flu [1, 8] was 601 and the “Qunt. Yield” value ([1]; quantum yield, BDNCA library) was 0.03.

With CC1=CC(/C=C/c2ccc(C)cc2C)=[N+]2C1=C(c1ccc(NC(=O)CCl)cc1)c1cccn1[B-]2(F)F [BDNCA-370] the Abs [1, 5] was 507 nm, the Flu-Abs [1, 6] was 78 and the ε [1, 7] was 34,050. The Flu [1, 8] was 585 and the “Qunt. Yield” value ([1]; quantum yield, BDNCA library) was 0.08.

In the case of COc1ccc(/C=C/c2cc(C)c3n2[B-](F)(F)[N+]2=CC=CC2=C3c2ccc(NC(=O)CCl)cc2)c(Cl)c1OC [BDNCA-372], the Abs [1, 5] is reported as 565 nm, the Flu-Abs [1, 6] is reported as 29 and the ε [1, 7] is reported as 69,474. The Flu [1, 8] was 594 and the “Qunt. Yield” value ([1]; quantum yield, BDNCA library) was 0.13.

In the case of CC1=CC(/C=C/c2c[nH]c3ccccc23)=[N+]2C1=C(c1ccc(NC(=O)CCl)cc1)c1cccn1[B-]2(F)F [BDNCA-375], the Abs [1, 5] is reported as 591 nm, the Flu-Abs [1, 6] is reported as 63 and the ε [1, 7] is reported as 21,968. The Flu [1, 8] was 654 and the “Qunt. Yield” value ([1]; quantum yield, BDNCA library) was 0.02.

In the case of Cc1cc(/C=C/c2ccc(N(C)C)c3ccccc23)n2c1C(c1ccc(NC(=O)CCl)cc1)=C1C=CC=[N+]1[B-]2(F)F [BDNCA-377], the Abs [1, 5] is reported as 590 nm, the ε [1, 7] is reported as 58,215 and the Flu [1, 8] is reported as “weak”. For the same compound, the “Qunt. Yield” value ([1]; quantum yield, BDNCA library) was “weak”.

For Cc1cc(/C=C/c2ccc(OCc3ccc(F)cc3)cc2)n2c1C(c1ccc(NC(=O)CCl)cc1)=C1C=CC=[N+]1[B-]2(F)F [BDNCA-378], the Abs [1, 5] was 566 nm, the Flu-Abs [1, 6] was 31 and the ε [1, 7] was 92,540. For the same compound, the Flu [1, 8] was 597 and the “Qunt. Yield” value ([1]; quantum yield, BDNCA library) was 0.16.

In the case of CC1=CC(/C=C/c2ccccc2I)=[N+]2C1=C(c1ccc(NC(=O)CCl)cc1)c1cccn1[B-]2(F)F [BDNCA-384], the Abs [1, 5] is reported as 555 nm, the Flu-Abs [1, 6] is reported as 23 and the ε [1, 7] is reported as 60,686. The Flu [1, 8] was 578 and the “Qunt. Yield” value ([1]; quantum yield, BDNCA library) was 0.11.

For CCOc1cc(/C=C/C2=[N+]3C(=C(c4ccc(NC(=O)CCl)cc4)c4cccn4[B-]3(F)F)C(C)=C2)ccc1O [BDNCA-397], the Abs [1, 5] was 573 nm, the Flu-Abs [1, 6] was 40 and the ε [1, 7] was 38,444. The Flu [1, 8] was 613 and the “Qunt. Yield” value ([1]; quantum yield, BDNCA library) was 0.01.

In the case of CC1=CC(/C=C/c2cccc(B(O)O)c2)=[N+]2C1=C(c1ccc(NC(=O)CCl)cc1)c1cccn1[B-]2(F)F [BDNCA-404], the Abs [1, 5] is reported as 556 nm, the Flu-Abs [1, 6] is reported as 18 and the ε [1, 7] is reported as 18,124. The Flu [1, 8] was 574 and the “Qunt. Yield” value ([1]; quantum yield, BDNCA library) was 0.03.

For Cc1cc(/C=C/c2cc(Cl)ccc2Cl)n2c1C(c1ccc(NC(=O)CCl)cc1)=C1C=CC=[N+]1[B-]2(F)F [BDNCA-407], the Abs [1, 5] was 555 nm, the Flu-Abs [1, 6] was 20 and the ε [1, 7] was 42,288. The Flu [1, 8] was 575 and the “Qunt. Yield” value ([1]; quantum yield, BDNCA library) was 0.07.

For Cc1cc(/C=C/c2ccc(Br)cc2)n2c1C(c1ccc(NC(=O)CCl)cc1)=C1C=CC=[N+]1[B-]2(F)F [BDNCA-409], the Abs [1, 5] was 557 nm, the Flu-Abs [1, 6] was 20 and the ε [1, 7] was 87,597. The Flu [1, 8] was 577 and the “Qunt. Yield” value ([1]; quantum yield, BDNCA library) was 0.14.

With CC1=CC(/C=C/C2CCCCC2)=[N+]2C1=C(c1ccc(NC(=O)CCl)cc1)c1cccn1[B-]2(F)F [BDNCA-414] the Abs [1, 5] was 524 nm, the Flu-Abs [1, 6] was 23 and the ε [1, 7] was 49,428. For the same compound, the Flu [1, 8] was 547 and the “Qunt. Yield” value ([1]; quantum yield, BDNCA library) was 0.09.

For CC1=CC(/C=C/C=C/c2ccco2)=[N+]2C1=C(c1ccc(NC(=O)CCl)cc1)c1cccn1[B-]2(F)F [BDNCA-417], the Abs [1, 5] was 519 nm, the ε [1, 7] was 13,730 and the Flu [1, 8] was “weak”. For the same compound, the “Qunt. Yield” value ([1]; quantum yield, BDNCA library) was “weak”.

For CC1=CC(/C=C/c2cccs2)=[N+]2C1=C(c1ccc(NC(=O)CCl)cc1)c1cccn1[B-]2(F)F [BDNCA-423], the Abs [1, 5] was 569 nm, the Flu-Abs [1, 6] was 25 and the ε [1, 7] was 61,510. The Flu [1, 8] was 594 and the “Qunt. Yield” value ([1]; quantum yield, BDNCA library) was 0.10.

With CC1=CC(/C=C/c2ccc(-c3ccccc3)c(F)c2)=[N+]2C1=C(c1ccc(NC(=O)CCl)cc1)c1cccn1[B-]2(F)F [BDNCA-425] the Abs [1, 5] was 562 nm, the Flu-Abs [1, 6] was 21 and the ε [1, 7] was 46,957. For the same compound, the Flu [1, 8] was 583 and the “Qunt. Yield” value ([1]; quantum yield, BDNCA library) was 0.11.

In the case of CC1=CC(/C=C/c2ccc(-c3ccc(Br)cc3)o2)=[N+]2C1=C(c1ccc(NC(=O)CCl)cc1)c1cccn1[B-]2(F)F [BDNCA-428], the Abs [1, 5] is reported as 506 nm, the Flu-Abs [1, 6] is reported as 151 and the ε [1, 7] is reported as 17,025. The Flu [1, 8] was 657 and the “Qunt. Yield” value ([1]; quantum yield, BDNCA library) was 0.02.

With CCOc1ccc(/C=C/C2=[N+]3C(=C(c4ccc(NC(=O)CCl)cc4)c4cccn4[B-]3(F)F)C(C)=C2)cc1 [BDNCA-429] the Abs [1, 5] was 566 nm, the Flu-Abs [1, 6] was 33 and the ε [1, 7] was 64,531. The Flu [1, 8] was 599 and the “Qunt. Yield” value ([1]; quantum yield, BDNCA library) was 0.14.

In the case of CC1=CC(/C=C/c2c(C)nn(C)c2C)=[N+]2C1=C(c1ccc(NC(=O)CCl)cc1)c1cccn1[B-]2(F)F [BDNCA-430], the Abs [1, 5] is reported as 567 nm, the Flu-Abs [1, 6] is reported as 34 and the ε [1, 7] is reported as 37,895. The Flu [1, 8] was 601 and the “Qunt. Yield” value ([1]; quantum yield, BDNCA library) was 0.09.

With CC1=CC(/C=C/c2cccc(Oc3ccc(C(C)(C)C)cc3)c2)=[N+]2C1=C(c1ccc(NC(=O)CCl)cc1)c1cccn1[B-]2(F)F [BDNCA-435] the Abs [1, 5] was 556 nm, the Flu-Abs [1, 6] was 20 and the ε [1, 7] was 61,510. The Flu [1, 8] was 576 and the “Qunt. Yield” value ([1]; quantum yield, BDNCA library) was 0.13.

For CC1=CC(/C=C/c2ccc(Cl)c(F)c2)=[N+]2C1=C(c1ccc(NC(=O)CCl)cc1)c1cccn1[B-]2(F)F [BDNCA-437], the Abs [1, 5] was 556 nm, the Flu-Abs [1, 6] was 19 and the ε [1, 7] was 47,506. For the same compound, the Flu [1, 8] was 575 and the “Qunt. Yield” value ([1]; quantum yield, BDNCA library) was 0.09.

With COc1cc(/C=C/c2cc(C)c3n2[B-](F)(F)[N+]2=CC=CC2=C3c2ccc(NC(=O)CCl)cc2)ccc1OCCN1CCCC1 [BDNCA-458] the Abs [1, 5] was 569 nm, the Flu-Abs [1, 6] was 39 and the ε [1, 7] was 25,538. The Flu [1, 8] was 608 and the “Qunt. Yield” value ([1]; quantum yield, BDNCA library) was 0.06.

From patent US9423396B2, “Bodipy structure fluorescence probes for diverse biological applications” (National University of Singapore, priority 2011, dated 2016)
